# Results from patent publication US20190343860A1 (Saint Louis University, priority 2016, published 2019).
# What was measured:
# [1] = Oxaliplatin-induced mechano-hypersensitivity (paw withdrawal threshold, von Frey); type: in vivo, rat; details: 0.1 mg/kg/d i.p. concomitant with oxaliplatin
# Description: Mean±SEM, n=6/group, ANOVA with Bonferroni comparisons. *P<0.05 vs. day 0; #P<0.05 vs. vehicle &†P<0.05 vs. Oxaliplatin.
# [2] = tested on: intraepidermal nerve fibers (IENFs); test: Incidence of intraepidermal nerve fibers (IENFs) in chemotherapy-treated rats; details: p<0.05
# [3] = tested on: mitochondria in peripheral sensory afferents (PNSAs); test: Mitochondrial ATP production in peripheral sensory afferents after in vivo treatment; parameters: species or system rat; details: 0.1 mg/kg/d i.p. concomitant with oxaliplatin
# Protocol: ATP assays. Saphenous nerves were harvested from rats 25 days after the initiation of chemotherapy treatments, then minced & teased apart as previously described. Saphenous nerve explants were transferred to MiR05 respiratory buffer & baseline ATP samples were taken after 5 min or after 15 min treatment with MRS5980 or vehicle. ADP (1 mM), glutamate (5 mM), succinate (5 mM), maleate (5 mM) were added for 5 min & samples were taken for ATP. ATP levels were measured by a flash luciferin-luciferase assay (Promega Enliten ATP Assay; Promega, Madison, Wis.) & normalized to citrate synthase activity (Sigma, St Louis, Mo.) in explants homogenates.
structure (smiles),measurement,setting,value
CNC(=O)[C@@]12C[C@@H]1[C@@H](n1cnc3c(NCc4cccc(Cl)c4)nc(C#Cc4ccc(F)c(F)c4)nc31)[C@H](O)[C@@H]2O [MRS5698],Development of mechano-hypersensitivity (Paw Withdrawal Threshold),[1],prevents
same,Incidence of IENFs vs. oxaliplatin alone,[2]; rats treated with oxaliplatin+MRS5698,significantly more IENFs
same,Incidence of IENFs vs. paclitaxel alone,[2]; rats treated with paclitaxel+MRS5698,significantly more IENFs
same,Mitochondrial ATP production in PNSAs,[3],prevents the deficiencies in mitochondrial ATP production
